Data set [1] is described as follows: Solubility in buffer systems by UPLC-UV (Example 13). The data set is classed as physicochemical. The procedure, abridged: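 The supernatant was diluted 1:10 and quantified by UPLC-UV peak area against a reference standard curve, correcting for sequence-based extinction coefficients.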
The nature of data set [2]: Physical stability, Thioflavin T fibrillation assay (Example 14). The data set is classed as physicochemical. Conditions: 3 mg/ml, 37° C. shaking. Put shortly: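 Compounds at 3 mg/ml final in buffer were stressed at 37° C by repeated cycles of 10 s shaking at 960 rpm and 50 s rest. ThT fluorescence was read every 20 minutes in eight replicates, with fluorescence increase and lag time indicating fibrillation tendency.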

Another data set addresses T1, recombinant human CRF2 (Homo sapiens, UniProt Q13324).
T1 construct: expressed in transfected cells; host or cells: HEK
T1 sequence (Q13324 1-411): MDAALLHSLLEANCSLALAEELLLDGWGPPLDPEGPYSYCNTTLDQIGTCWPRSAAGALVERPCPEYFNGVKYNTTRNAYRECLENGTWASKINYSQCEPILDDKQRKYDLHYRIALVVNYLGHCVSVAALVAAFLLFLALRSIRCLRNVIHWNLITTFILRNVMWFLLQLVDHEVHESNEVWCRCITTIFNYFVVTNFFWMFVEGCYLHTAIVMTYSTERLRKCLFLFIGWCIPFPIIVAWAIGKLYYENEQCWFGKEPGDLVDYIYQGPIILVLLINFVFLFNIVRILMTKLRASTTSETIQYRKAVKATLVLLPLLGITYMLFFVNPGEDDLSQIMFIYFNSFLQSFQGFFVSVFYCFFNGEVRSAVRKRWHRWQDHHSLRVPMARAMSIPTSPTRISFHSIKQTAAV
The data set is described as follows: CRF2a (h) agonist radioligand binding, [125]sauvagine, HEK cell membranes (Example 11). Conditions: competition with [125]sauvagine 0.1 nM. Here is the method:
Receptor binding of the compounds was assessed using a CRF2a (h) (agonist radioligand) assay.
HEK cells expressing recombinant human CRF2 were used as a source of receptor for membrane preparation.
IC50 values (concentration causing a half-maximal inhibition of control specific binding) and Hill coefficients (nH) were determined by non-linear regression analysis of the competition curves generated with mean replicate values using Hill equation curve fitting. The inhibition constants (Ki) were calculated using the Cheng Prusoff equation [Ki=IC50/(1+L/KD) where L is the concentration of radioligand in the assay, and KD is the affinity of the radioligand for the receptor). A Scatchard plot was used to determine the KD.

The test system of the next data set is rat CRF2R α receptor. The data set is described as follows: cAMP agonism at rat CRF2R α receptor in A7R5 rat aortic smooth muscle cells (Example 8). The data set is classed as cell-based. Conditions: cAMP HTRF, A7R5 rat aortic smooth muscle cell line, 0% HSA. The procedure, abridged: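 Thawed cryopreserved A7R5 cells in HBSS/20 mM HEPES (0 or 0.1% HSA) with 2 mM IBMX, 2000 cells/well, were exposed to compound for 30 min at room temperature. cAMP was read by HTRF (665/620 nm ratio) after 1 h with lysis reagents. Activity was normalised to 1000 nM urocortin 2 as 100%, and EC50 was taken as the concentration giving 50% of maximal activation.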
Background: Time-resolved FRET reads energy transfer from a long-lived donor to a nearby acceptor.

Another data set deals with T2, CRF1R receptor (Homo sapiens, UniProt P34998).
T2 construct: host or cells: CHO-K1 clone 2
T2 sequence (P34998 24-415): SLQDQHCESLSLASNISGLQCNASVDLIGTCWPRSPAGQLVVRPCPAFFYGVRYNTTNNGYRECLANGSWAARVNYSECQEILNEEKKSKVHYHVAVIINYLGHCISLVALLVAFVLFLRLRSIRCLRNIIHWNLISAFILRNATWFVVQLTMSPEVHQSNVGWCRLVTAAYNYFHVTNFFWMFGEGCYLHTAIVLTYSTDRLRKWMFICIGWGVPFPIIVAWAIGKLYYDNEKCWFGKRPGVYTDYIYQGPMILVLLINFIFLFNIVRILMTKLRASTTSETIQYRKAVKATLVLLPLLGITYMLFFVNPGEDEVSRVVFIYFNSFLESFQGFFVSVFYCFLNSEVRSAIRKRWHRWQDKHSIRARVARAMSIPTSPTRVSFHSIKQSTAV
In words: cAMP activity at anti-target CRF1R, CRF1R-overexpression CHO cell line (Example 9). The data set is classed as cell-based. Conditions: for EC50: 0% HSA. Put shortly: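 cAMP accumulation was read by HTRF after 30 min at room temperature of compound treatment. Cells were cryopreserved CHO cells overexpressing CRF1R, plated at 2000/well in IBMX (2 mM)-containing HBSS/HEPES buffer with 0 or 0.1% HSA. Activity was normalized to 1000 nM UCN2 as 100%.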

Where [3] appears, read: pH 4.5, Solubility in Buffer B [mg/ml].
Where [4] appears, read: pH 7.4, Solubility in Buffer C [mg/ml].
Where [5] appears, read: Buffer A: 100 mM acetate buffer, pH 4.5.
Where [6] appears, read: Buffer B: 100 mM acetate buffer, pH 4.5, 2.7 mg/ml m-cresol.
The mark [7] stands for this setting: CRF1R-overexpression CHO cell line.
Setting [8] is: CRF1R-overexpression CHO cell line, read-out: Emax (%).

Converted amounts (≈) assume the structure as drawn. Read-outs that look alike come from different tables or passages of the source. Starred links: 1 amine or outer side, 2 acyl side, 3 side chain; linkers in the order of their positions; H or OH if unused. Non-standard residues stand in square brackets, D forms with d. Residues, ends and D or L forms follow the SMILES beside them. Groups on a side chain read outwards from the residue. *: point of attachment. C20 diacid = O=C(O)CCCCCCCCCCCCCCCCCCC(=O)*; C18 diacid = O=C(O)CCCCCCCCCCCCCCCCC(=O)*; γGlu = O=C(O)[C@H](CCC(=O)[*:2])N[*:1]; AEEA = NCCOCCOCC(=O)O; Aib = CC(C)(N)C(=O)O

Broadly, the solubility is the dissolved amount per volume that the medium holds. Broadly, the EC50 is the concentration giving half of the maximal effect. Low values mean a more potent agent, high ones a less potent agent. One may read the Emax as the maximal effect, on the per cent scale that the assay sets. In the case of `CC[C@H](C)[C@H](N)C(=O)N[C@H](C(=O)N[C@@H](CC(C)C)C(=O)N[C@@H](CO)C(=O)N[C@@H](CC(C)C)C(=O)N[C@@H](CC(=O)O)C(=O)N[C@H](C(=O)N1CCC[C@H]1C(=O)N[C@H](C(=O)N[C@@H](CCCCN)C(=O)N[C@@H](CC(C)C)C(=O)N[C@@H](CCCCNC(=O)COCCOCCNC(=O)COCCOCCNC(=O)CC[C@H](NC(=O)CCCCCCCCCCCCCCCCC(=O)O)C(=O)O)C(=O)N[C@@H](CCCCN)C(=O)N[C@H](C(=O)N[C@@H](CC(C)C)C(=O)N[C@@H](CC(C)C)C(=O)N[C@@H](CCC(=O)O)C(=O)N[C@@H](CCC(N)=O)C(=O)N[C@@H](CCC(=O)O)C(=O)N[C@@H](CCCCN)C(=O)N[C@@H](CCC(N)=O)C(=O)N[C@@H](CCCCN)C(=O)N[C@@H](CCCCN)C(=O)N[C@@H](CCC(N)=O)C(=O)N[C@@H](CCCNC(=N)N)C(=O)N[C@@H](CCC(=O)O)C(=O)N[C@@H](CCC(N)=O)C(=O)N[C@@H](C)C(=O)N[C@@H](CCC(=O)O)C(=O)N[C@H](C(=O)N[C@@H](CC(N)=O)C(=O)N[C@@H](CCCCN)C(=O)N[C@@H](CCC(N)=O)C(=O)N[C@H](C(=O)N[C@@H](CC(C)C)C(=O)N[C@@H](C)C(=O)N[C@@H](CCC(N)=O)C(=O)N[C@H](C(N)=O)C(C)C)[C@@H](C)CC)[C@@H](C)O)[C@@H](C)CC)[C@@H](C)CC)C(C)C)C(C)C` [compound 35] (H-IVLSLDVPIKLK([AEEA-AEEA-γGlu-C18 diacid])KILLEQEKQKKQREQAETNKQILAQV-NH2; N-terminus assumed), the solubility at 1 h is above 8700 µg/mL in data set [1] (setting [3]) and above 9800 µg/mL in data set [1] (setting [4]). For the same compound, the “Increase in FI (fluorescence intensity)” value in data set [2] (setting [5]) and in data set [2] (setting [6]) was “No” throughout. In addition, the “Lag time” value in data set [2] (setting [5]) and in data set [2] (setting [6]) was above 45 h each time. In addition, the “nH (Hill coefficient)” value on recombinant human CRF2 is reported as 1.7. The figures for the EC50 in the data set on rat CRF2R α receptor and on CRF1R receptor (setting [7]) were 0.81 nM and above 1000 nM, respectively. Further, the Emax on CRF1R receptor (setting [8]) stood at 1.77%.
Take `CC[C@H](C)[C@H](NC(=O)[C@H](CCC(N)=O)NC(=O)[C@H](CCC(=O)O)NC(=O)[C@H](CC(C)C)NC(=O)[C@H](CC(C)C)NC(=O)[C@H](CCC(N)=O)NC(=O)[C@H](CCCCN)NC(=O)[C@H](CC(N)=O)NC(=O)[C@H](CCCCN)NC(=O)[C@H](CCC(=O)O)NC(=O)[C@H](C)NC(=O)[C@H](CCC(N)=O)NC(=O)[C@H](CCC(N)=O)NC(=O)[C@H](CCCNC(=N)N)NC(=O)[C@H](CCC(=O)O)NC(=O)[C@H](CCCCN)NC(=O)[C@H](CCCCN)NC(=O)[C@H](CCC(N)=O)NC(=O)[C@H](CCCCN)NC(=O)[C@H](CCC(N)=O)NC(=O)[C@H](CCC(N)=O)NC(=O)[C@H](CCCCN)NC(=O)[C@H](CC(C)C)NC(=O)[C@H](CC(C)C)NC(=O)[C@@H](NC(=O)[C@H](CCC(N)=O)NC(=O)[C@H](CCCCNC(=O)COCCOCCNC(=O)COCCOCCNC(=O)CC[C@H](NC(=O)CCCCCCCCCCCCCCCCCCC(=O)O)C(=O)O)NC(=O)[C@@H](NC(=O)[C@H](CCCCN)NC(=O)[C@@H](NC(=O)[C@@H]1CCCN1C(=O)[C@@H](NC(=O)[C@H](CC(=O)O)NC(=O)[C@H](CC(C)C)NC(=O)[C@H](CO)NC(=O)[C@H](CC(C)C)NC(=O)[C@@H](NC(=O)[C@@H](N)Cc1ccccc1)[C@@H](C)O)C(C)C)[C@@H](C)O)[C@@H](C)CC)[C@@H](C)CC)C(N)=O` [compound 59] (H-FTLSLDVPTKIK([AEEA-AEEA-γGlu-C20 diacid])QILLKQQKQKKERQQAEKNKQLLEQI-NH2): the solubility at 1 h is above 9400 µg/mL in data set [1] (Buffer B: 100 mM acetate buffer, pH 4.5, 2.7 mg/ml m-cresol, target 10 mg/ml, read-out: Solubility in Buffer B) and above 9100 µg/mL in data set [1] (Buffer C: 100 mM phosphate buffer, pH 7.4, target 10 mg/ml, read-out: Solubility in Buffer C). Besides, the “nH (Hill coefficient)” value on recombinant human CRF2 is recorded as 0.6. The compound also showed an EC50 in the data set with rat CRF2R α receptor of 0.34 nM. The compound also yielded an Emax on CRF1R receptor (CHO) of 11.1%.
On to `CC[C@H](C)[C@H](N)C(=O)N[C@H](C(=O)N[C@@H](CC(C)C)C(=O)N[C@@H](CO)C(=O)N[C@@H](CC(C)C)C(=O)N[C@@H](CC(=O)O)C(=O)N[C@@H](C(=O)N1CCC[C@H]1C(=O)N[C@H](C(=O)N[C@@H](CCCCN)C(=O)N[C@@H](CC(C)C)C(=O)N[C@@H](CCCCNC(=O)COCCOCCNC(=O)COCCOCCNC(=O)CC[C@H](NC(=O)CCCCCCCCCCCCCCCCC(=O)O)C(=O)O)C(=O)N[C@@H](CCC(N)=O)C(=O)N[C@H](C(=O)N[C@@H](CC(C)C)C(=O)N[C@@H](CC(C)C)C(=O)N[C@@H](CCCCN)C(=O)N[C@@H](CCC(N)=O)C(=O)N[C@@H](CCC(=O)O)C(=O)N[C@@H](CCCNC(=N)N)C(=O)N[C@@H](CCC(N)=O)C(=O)N[C@@H](CCCCN)C(=O)NC(C)(C)C(=O)N[C@@H](CCC(N)=O)C(=O)N[C@@H](CCCNC(=N)N)C(=O)N[C@@H](CCC(N)=O)C(=O)N[C@@H](CCC(N)=O)C(=O)N[C@@H](C)C(=O)N[C@@H](CCC(=O)O)C(=O)N[C@@H](CCCCN)C(=O)N[C@@H](CC(N)=O)C(=O)N[C@@H](CCCCN)C(=O)N[C@@H](CCC(N)=O)C(=O)N[C@H](C(=O)N[C@@H](CC(C)C)C(=O)N[C@@H](C)C(=O)N[C@@H](CCC(N)=O)C(=O)N[C@H](C(N)=O)C(C)C)[C@@H](C)CC)[C@@H](C)CC)[C@@H](C)CC)C(C)C)C(C)C` [compound 135] (H-IVLSLD[dV]PIKLK([AEEA-AEEA-γGlu-C18 diacid])QILLKQERQK[Aib]QRQQAEKNKQILAQV-NH2; N-terminus assumed), for which the solubility at 1 h was above 8400 µg/mL in data set [1] (pH 4.5, Solubility in Buffer A [mg/ml]); above 9200 µg/mL in data set [1] (setting [3]); 7500 µg/mL (≈ 1450 µM) in data set [1] (setting [4]). Further, the “Increase in FI (fluorescence intensity)” value in data set [2] (setting [6]) is reported as “No”. For the same compound, the “Lag time” value in data set [2] (setting [6]) was above 45 h. The figures for the EC50 in the data set on rat CRF2R α receptor and at CRF1R receptor (setting [7]) were 0.13 nM and above 1000 nM, respectively. The Emax on CRF1R receptor (setting [8]) turned out to be 28.4%.

The record behind these values is patent publication US12679878B2, “CRF2 receptor agonists and their use in therapy” (SANOFI, priority 2020, dated 2026).
